Reference: PMC4980693, “TRPV4 regulates calcium homeostasis, cytoskeletal remodeling, conventional outflow and intraocular pressure in the mammalian eye” (Scientific Reports, 2016)

Tests used:
[1] = target: T1, TRPV4 (transient receptor potential vanilloid 4) (Homo sapiens, UniProt Q9HBA0); assay: inhibition of GSK101 ([…])-induced Ca2+ signals in human trabecular meshwork cells (Fura-2); putative prodrug analog of HC-067047; format: cell-based
[2] = target: T1, TRPV4 (transient receptor potential vanilloid 4); assay: whole-cell patch clamp and Fura-2 Ca2+ imaging in human trabecular meshwork cells (endogenous channel), agonist; format: cell-based

T1 sequence (Q9HBA0 whole entry): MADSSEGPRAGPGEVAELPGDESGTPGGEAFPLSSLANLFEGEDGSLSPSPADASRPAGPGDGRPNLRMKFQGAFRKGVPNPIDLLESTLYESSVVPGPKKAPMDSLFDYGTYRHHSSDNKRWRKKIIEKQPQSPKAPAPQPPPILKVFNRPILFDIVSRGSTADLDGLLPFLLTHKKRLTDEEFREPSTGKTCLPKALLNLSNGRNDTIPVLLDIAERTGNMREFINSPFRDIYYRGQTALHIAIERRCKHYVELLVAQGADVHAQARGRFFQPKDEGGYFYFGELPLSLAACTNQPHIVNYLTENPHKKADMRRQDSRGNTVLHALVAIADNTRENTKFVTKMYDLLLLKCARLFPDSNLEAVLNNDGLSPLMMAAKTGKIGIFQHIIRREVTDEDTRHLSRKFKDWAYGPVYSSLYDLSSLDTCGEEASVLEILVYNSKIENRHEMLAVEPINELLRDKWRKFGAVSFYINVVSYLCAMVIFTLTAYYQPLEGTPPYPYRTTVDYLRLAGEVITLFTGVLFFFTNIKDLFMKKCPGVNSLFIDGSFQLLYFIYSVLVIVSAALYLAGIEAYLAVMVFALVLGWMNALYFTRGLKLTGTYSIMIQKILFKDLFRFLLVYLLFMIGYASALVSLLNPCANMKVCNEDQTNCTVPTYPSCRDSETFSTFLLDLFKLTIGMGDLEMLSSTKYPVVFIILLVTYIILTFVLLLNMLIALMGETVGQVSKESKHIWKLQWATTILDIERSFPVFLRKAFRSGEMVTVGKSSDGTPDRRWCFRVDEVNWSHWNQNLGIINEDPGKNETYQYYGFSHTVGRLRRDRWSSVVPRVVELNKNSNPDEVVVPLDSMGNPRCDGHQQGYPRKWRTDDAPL

IC50 [1] [nM] | SMILES | EC50 [2] [nM]
740 ± 40 | Cc1c(C(=O)Nc2cccc(C(=O)OC(C)C)c2)cc(-c2ccccc2)n1CCCN1CCOCC1 [YX-02, isopropyl 3-(2-methyl-1-(3-morpholinopropyl)-5-phenyl-1H-pyrrole-3-carboxamido)benzoate] | –
– | CC(C)C[C@H](NC(=O)c1cc2ccccc2s1)C(=O)N1CCN(C(=O)[C@H](CO)NS(=O)(=O)c2ccc(Cl)cc2Cl)CC1 [GSK101, GSK1016790A] | ~25
